Patent US9060541B2, “Sterilizer for foods” (Kawakami Co., Ltd., priority 2009, dated 2015)
Where two headings read alike, the source gives them in different places.

How the values were obtained:
Type in all cases: cell-based
Set-up in all cases: key: D: There is no sterilization effect.; C: There is a sterilization effect in step (1) but no sterilization effect in step (2).; B: There is a sterilization effect up to step (2) but no sterilization effect in step (3).; A: There is a sterilization effect up to step (3)
[1] = test system: Vibrio parahaemolyticus AQ3815; experiment: Comparison test of sterilization effects against various food poisoning microbes
[2] = test system: Vibrio cholerae O1 NIH 41
Vibrio mimicus KX-M5 = experiment: Comparison test of sterilization effects against various food poisoning microbes
[3] = test system: Staphylococcus aureus 080392-1 Toxin type A; experiment: as above
[4] = test system: Salmonella serotype Stanley KX-S141; experiment: as above
[5] = test system: Salmonella serotype Agona KX-S143; experiment: as above
[6] = test system: Salmonella serotype Kentucky KX-S149; experiment: as above
[7] = test system: Salmonella serotype Anatum KX-S152; experiment: as above
[8] = test system: Shigella flexneri subtype 1b KX-H273; experiment: as above
[9] = test system: Enteropathogenic Escherichia coli O55 KX-E59; experiment: as above
[10] = test system: Enterohemorrhagic Escherichia coli O157:H7 EDL 933
[11] = test system: Enteroinvasive Escherichia coli O28ac KX-E63; experiment: Comparison test of sterilization effects against various food poisoning microbes
[12] = test system: Lactobacillus plantarum RIMD 1202001; experiment: as above
[13] = test system: Campylobacter jejuni subsp. Jejuni JCM2013; experiment: as above
[14] = test system: Campylobacter coli JCM 2529; experiment: as above
[15] = Table 7, test microbe solution without yeast extract
[16] = Table 8, yeast extract 4 weight % blended in test microbe solution

Row | SMILES | Sterilization effect [1, 15] | Sterilization effect [1, 16] | Sterilization effect [2, 15] | Sterilization effect [2, 16] | Sterilization effect (Vibrio mimicus KX-M5; [15]) | Sterilization effect (Vibrio mimicus KX-M5; [16]) | Sterilization effect [3, 15] | Sterilization effect [3, 16] | Sterilization effect [4, 15] | Sterilization effect [4, 16] | Sterilization effect [5, 15] | Sterilization effect [5, 16] | Sterilization effect [6, 15] | Sterilization effect [6, 16] | Sterilization effect [7, 15] | Sterilization effect [7, 16] | Sterilization effect [8, 15] | Sterilization effect [8, 16] | Sterilization effect [9, 15] | Sterilization effect [9, 16] | other results
1 | CCO [EtOH 30%, ethanol] | B | C | B | C | C | C | B | D | C | C | C | C | C | C | C | C | C | D | D | D | Sterilization effect [10]: D; Sterilization effect [11, 15]: C; Sterilization effect [11, 16]: C; Sterilization effect [12, 15]: C; Sterilization effect [12, 16]: D; Sterilization effect [13, 15]: B; Sterilization effect [13, 16]: B; Sterilization effect [14, 15]: B; Sterilization effect [14, 16]: B
2 | [Na+].[O-]Cl [S.H 150 ppm, sodium hypochlorite] | A | C | A | D | A | D | A | D | A | D | A | D | A | D | A | D | A | D | A | D | Sterilization effect [10, 15]: A; Sterilization effect [10, 16]: D; Sterilization effect [11, 15]: A; Sterilization effect [11, 16]: D; Sterilization effect [12, 15]: A; Sterilization effect [12, 16]: D; Sterilization effect [13, 15]: A; Sterilization effect [13, 16]: C; Sterilization effect [14, 15]: A; Sterilization effect [14, 16]: C
